According to paper PMC12067444, “Synthesis and Pharmacological Characterization of Novel Peripheral Cannabinoid-1 Receptor Blockers Based on a Tricyclic Scaffold” (Journal of Medicinal Chemistry, 2025):
Entries after “also recorded” stand apart in the source; their conditions may differ.

What was measured:
[1] = biological target: T1, CB1R (Mus musculus, UniProt P47746); test: [35S]GTPγS binding - CB1R activity, mouse brain membranes; assay type: biochemical; details: CP-55,940 as reference agonist
T1 construct: crude membranes from mouse brain; from tissue; host or cells: mouse brain cortex (without cerebellum) membranes, C57Bl/6Jhsd mice
Experimental: Mouse brains were dissected, and P2 membranes were prepared and resuspended at ∼10 μg protein/μL in 350 μL assay buffer containing 0.14% BSA. Ligand-stimulated [^35S]GTPγS binding was assayed as described in the SI. […]
utilizing [3H] C P -55,940 as the radioligand and crude membranes from humans for CB1 R or CB2 R. T he compounds were tested at various concentrations (eight points with a five-fold serial dilution starting at two m M) , and their ability to displace [3H] CP - 55, 940 was evaluated. Upon completion of the binding assays, the reaction mixture was filtered through GF/C plates, followed by four washes with cold wash buffer. After drying for one hour, 50 μL of Perkin Elmer Microscint 20 cocktail was added to the filter plate wells, and the bound [3H] C P -55,940 radioligand was measured using a β counter. All data points were duplicated, and Ki values were determined from two independent experiments using GraphPad Prism 7.02 analysis software, extracted through nonlinear regression analysis.
Tissue preparation for [ 35 S]GTPγS binding. […]
mM EGTA, 9 mM MgCl 2, and 150 mM NaCl, followed by homogenization. The protein concentration of the suspension was determined using the BCA assay, and the suspen sion was diluted to a final concentration of 2 mg/mL in assay buffer. […]
Supplementary Figure 1. […] The tested compounds were evaluated for their ability to inhibit CB1R-mediate d […]

[2] = Stability in simulated gastric fluid (SGF); assay type: in vitro ADME
[3] = test system: C57BL/6J mice; test: Assessment of centrally mediated hyperactivity (locomotor activity); assay type: in vivo, mouse
Experimental: The activity profiles of the mice were evaluated using the Promethion High-Definition Behavioral Phenotyping System (Sable Instruments, Inc., Las Vegas, NV, USA). MetaScreen software version 2.2.18.0 was employed for data acquisition and instrument control, while ExpeData version 1.8.4 was used for processing raw data. An analysis script detailing all aspects of the data transformation was utilized. Mice with unrestricted access to food and water were subjected to a standard 12 h light/12 h dark cycle, comprising a 16-h acclimation period followed by 24 h of sampling. Ambulatory activity and position were concurrently quantified by the number of disruptions of the infrared beams in three dimensions (XYZ) with a beam spacing of 0.25 cm.
This experiment aimed to evaluate the capacity of BNS808 and rimonabant (used as a positive control) to elicit centrally mediated hyperactivity in mice (a known feature of a brain penetrant compound). For this purpose, male wild-type C57BL/6J mice received a single dose of either the vehicle, rimonabant (10 mg/kg, PO), or BNS808 (1 or 10 mg/kg, PO). The locomotor activity was quantified by measuring the disruptions of infrared beams in two dimensions (XY) for 1 h. Each testing session involved evaluating two groups at a time.

[4] = Brain compound levels in the CNS side-effect study (Figure 2H); assay type: in vivo; details: male, C57Bl/6J, mouse, in vivo; BNS808 PO (1 or 10 mg/kg, dose not stated), 1 h after administration
Experimental: The ability of BNS808 and rimonabant (as a positive control) to induce centrally mediated hyperactivity in mice (A–C). Wild-type, male, C57Bl/6J mice received a single dose of rimonabant (10 mg/kg, PO), BNS808 (1 or 10 mg/kg, PO) or vehicle, and the Promethion High-Definition Behavioral Phenotyping System monitored the activity profile. In addition, the ability of BNS808 and rimonabant (as a positive control) to inhibit the hypomotility induced by a CB1R receptor agonist (HU210; 30 μg/kg, IP) was tested in wild-type, male, C57Bl/6J mice which received a single dose of rimonabant (10 mg/kg, PO) or BNS808 (1 or 10 mg/kg, PO) or vehicle (D–F). […] Data represent the mean ± SEM from 4 to 8 mice per group. *P < 0.05 vs Vehicle-treated control. ^#P < 0.05 vs rimonabant.

T1 sequence (P47746 whole entry): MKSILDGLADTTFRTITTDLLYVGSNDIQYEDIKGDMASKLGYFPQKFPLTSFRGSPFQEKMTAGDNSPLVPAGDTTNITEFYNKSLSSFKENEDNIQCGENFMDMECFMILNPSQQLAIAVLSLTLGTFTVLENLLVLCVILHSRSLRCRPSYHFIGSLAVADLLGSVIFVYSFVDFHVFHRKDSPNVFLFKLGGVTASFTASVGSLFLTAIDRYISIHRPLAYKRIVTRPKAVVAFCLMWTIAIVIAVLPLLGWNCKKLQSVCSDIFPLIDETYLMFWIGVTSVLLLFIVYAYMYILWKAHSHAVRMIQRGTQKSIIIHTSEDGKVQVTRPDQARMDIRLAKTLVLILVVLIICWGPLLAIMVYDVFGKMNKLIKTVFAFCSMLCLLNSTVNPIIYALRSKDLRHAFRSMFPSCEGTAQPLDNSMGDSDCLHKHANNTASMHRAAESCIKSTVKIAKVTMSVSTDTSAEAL

SMILES	CB1R functional profile in GTPγS assay [1]	amount in SGF with pepsin ([2]; 0 h)	amount in SGF, no pepsin ([2]; 0 h)	Initial amount (%) in SGF with pepsin ([2]; 1 h)	Initial amount (%) in SGF, no pepsin ([2]; 1 h)	amount in SGF with pepsin ([2]; 1 h)	stability in SGF and SIF ([2]; summary column covering SGF and SIF)	Stability in SGF ([2]; with and without pepsin)	CNS-mediated side effects ([3]; 1 mg/kg and 10 mg/kg PO, mice)	locomotor activity (centrally mediated hyperactivity) ([3]; single dose 1 or 10 mg/kg PO, male C57Bl/6J mice, 1 h)	concentration at 1 h [4]
Cc1ccc(S(=O)(=O)NC2CCCOc3c2nn(-c2ccccc2Cl)c3-c2ccc(Cl)cc2)cc1 (centres unmarked) [BNS807]	inverse agonistic profile; also recorded: inverse agonist										
O=S(=O)(NC1CCCOc2c1nn(-c1ccccc1Cl)c2-c1ccc(Cl)cc1)c1ccc(Cl)cc1 (centres unmarked) [BNS808, 4-chloro-N-[2-(2-chlorophenyl)-3-(4-chlorophenyl)-5,6,7,8-tetrahydrooxepino[3,2-c]pyrazol-8-yl]benzenesulfonamide]		2.753 mg	2.826 mg	98%	102%	2.69 mg	stable	Stable	No CNS-mediated side effects were observed	no significant changes in locomotor activity	13 ng/g
